Key:
Format in all cases: in vivo
[1] = test system: pigweed (Amaranthus retroflexus); assay: Test A preemergence; details: Amaranthus retroflexus, pre-emergence, 240 h, 0 to 100 scale (0 no effect, 100 complete control), read-out: Plant response rating, Pigweed; for pest or weed control at 500 g/ha: 500 g ai/ha, preemergence; for pest or weed control at 125 g/ha: Preemergence, 125 g ai/ha
[2] = test system: barnyardgrass (Echinochloa crus-galli); assay: Test A preemergence; details: Echinochloa crus-galli, pre-emergence, 240 h, 0 to 100 scale (0 no effect, 100 complete control), read-out: Plant response rating, Barnyardgrass; for pest or weed control at 500 g/ha: 500 g ai/ha, preemergence; for pest or weed control at 125 g/ha: Preemergence, 125 g ai/ha
Outline: (§1)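 Preemergence soil spray on seeded pots or post-emergence spray on 1–2 leaf plants, in loam–sand blend. Greenhouse ~10 d. Visual rating 0–100 against untreated plants.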

[3] = test system: ryegrass, Italian (Italian ryegrass, Lolium multiflorum); assay: Test A preemergence; details: Lolium multiflorum, pre-emergence, 240 h, 0 to 100 scale (0 no effect, 100 complete control), read-out: Plant response rating, Ryegrass, Italian; for pest or weed control at 500 g/ha: 500 g ai/ha, preemergence; for pest or weed control at 125 g/ha: Preemergence, 125 g ai/ha
Outline: as §1

[4] = test system: ragweed (common ragweed, Ambrosia elatior); assay: Test A preemergence; details: Ambrosia artemisiifolia, pre-emergence, 240 h, 0 to 100 scale (0 no effect, 100 complete control), read-out: Plant response rating, Ragweed; for pest or weed control at 500 g/ha: 500 g ai/ha, preemergence; for pest or weed control at 125 g/ha: Preemergence, 125 g ai/ha
Outline: as §1

[5] = test system: giant foxtail (Setaria faberii); assay: Test A preemergence; details: Setaria faberi, pre-emergence, 240 h, 0 to 100 scale (0 no effect, 100 complete control), read-out: Plant response rating, Foxtail, Giant; for pest or weed control at 500 g/ha: 500 g ai/ha, preemergence; for pest or weed control at 125 g/ha: Preemergence, 125 g ai/ha
Outline: as §1

Kochia (Kochia scoparia) [6] = assay: Test A preemergence; details: Bassia scoparia, pre-emergence, 240 h, 0 to 100 scale (0 no effect, 100 complete control), read-out: Plant response rating, Kochia; for pest or weed control at 500 g/ha: 500 g ai/ha, preemergence; for pest or weed control at 125 g/ha: Preemergence, 125 g ai/ha
Outline: as §1

[7] = test system: blackgrass (Alopecurus myosuroides); assay: Test A postemergence; details: Alopecurus myosuroides, post-emergence, 240 h, Postemergence; for pest or weed control at 125 g/ha: 125 g ai/ha, visual rating about 10 d after treatment, read-out: Blackgrass plant response rating (0 to 100 scale); for pest or weed control at 500 g/ha: 500 g ai/ha, visual injury, 0 to 100 scale (0 no effect, 100 complete control), approx. 10 d, read-out: Plant response rating, Blackgrass
Outline: as §1

[8] = test system: pigweed (Amaranthus retroflexus); assay: Test A postemergence; details: Amaranthus retroflexus, post-emergence, 240 h, Postemergence; for pest or weed control at 125 g/ha: 125 g ai/ha, visual rating about 10 d after treatment, read-out: Pigweed plant response rating (0 to 100 scale); for pest or weed control at 500 g/ha: 500 g ai/ha, visual injury, 0 to 100 scale (0 no effect, 100 complete control), approx. 10 d, read-out: Plant response rating, Pigweed
Outline: as §1

[9] = test system: barnyardgrass (Echinochloa crus-galli); assay: Test A postemergence; details: Echinochloa crus-galli, post-emergence, 240 h, Postemergence; for pest or weed control at 125 g/ha: 125 g ai/ha, visual rating about 10 d after treatment, read-out: Barnyardgrass plant response rating (0 to 100 scale, 0 no effect, 100 complete control); for pest or weed control at 500 g/ha: 500 g ai/ha, visual injury, 0 to 100 scale (0 no effect, 100 complete control), approx. 10 d, read-out: Plant response rating, Barnyardgrass
Outline: as §1

[10] = test system: Galium (catchweed bedstraw, Galium aparine); assay: Test A postemergence; details: Galium, post-emergence, 240 h, Postemergence; for pest or weed control at 125 g/ha: 125 g ai/ha, visual rating about 10 d after treatment, read-out: Galium plant response rating (0 to 100 scale); for pest or weed control at 500 g/ha: 500 g ai/ha, visual injury, 0 to 100 scale (0 no effect, 100 complete control), approx. 10 d, read-out: Plant response rating, Galium
Outline: as §1

[11] = test system: ryegrass, Italian (Italian ryegrass, Lolium multiflorum); assay: Test A postemergence; details: Lolium multiflorum, post-emergence, 240 h, Postemergence; for pest or weed control at 125 g/ha: 125 g ai/ha, visual rating about 10 d after treatment, read-out: Ryegrass, Italian plant response rating (0 to 100 scale); for pest or weed control at 500 g/ha: 500 g ai/ha, visual injury, 0 to 100 scale (0 no effect, 100 complete control), approx. 10 d, read-out: Plant response rating, Ryegrass, Italian
Outline: as §1

[12] = test system: ragweed (common ragweed, Ambrosia elatior); assay: Test A postemergence; details: Ambrosia artemisiifolia, post-emergence, 240 h, Postemergence; for pest or weed control at 125 g/ha: 125 g ai/ha, visual rating about 10 d after treatment, read-out: Ragweed plant response rating (0 to 100 scale); for pest or weed control at 500 g/ha: 500 g ai/ha, visual injury, 0 to 100 scale (0 no effect, 100 complete control), approx. 10 d, read-out: Plant response rating, Ragweed
Outline: as §1

[13] = test system: giant foxtail (Setaria faberii); assay: Test A postemergence; details: Setaria faberi, post-emergence, 240 h, Postemergence; for pest or weed control at 125 g/ha: 125 g ai/ha, visual rating about 10 d after treatment, read-out: Foxtail, Giant plant response rating (0 to 100 scale); for pest or weed control at 500 g/ha: 500 g ai/ha, visual injury, 0 to 100 scale (0 no effect, 100 complete control), approx. 10 d, read-out: Plant response rating, Foxtail, Giant
Outline: as §1

Kochia (Kochia scoparia) [14] = assay: Test A postemergence; details: Bassia scoparia, post-emergence, 240 h, Postemergence; for pest or weed control at 125 g/ha: 125 g ai/ha, visual rating about 10 d after treatment, read-out: Kochia plant response rating (0 to 100 scale); for pest or weed control at 500 g/ha: 500 g ai/ha, visual injury, 0 to 100 scale (0 no effect, 100 complete control), approx. 10 d, read-out: Plant response rating, Kochia
Outline: as §1

corn (Zea mays) = assay: Test A postemergence; details: Zea mays, post-emergence, 240 h, Postemergence; for plant injury at 125 g/ha: 125 g ai/ha, visual rating about 10 d after treatment, read-out: Corn plant response rating (0 to 100 scale); for Corn plant response rating (crop injury, 0 = no effect, 100 = complete kill) at 500 g/ha: 500 g ai/ha, visual injury, 0 to 100 scale (0 no effect, 100 complete control), approx. 10 d
Outline: as §1

| Structure (SMILES) | pest or weed control at 500 g/ha [1] [%] | pest or weed control at 125 g/ha [1] [%] | pest or weed control at 500 g/ha [2] [%] | pest or weed control at 125 g/ha [2] [%] | pest or weed control at 500 g/ha [3] [%] | pest or weed control at 125 g/ha [3] [%] | pest or weed control at 500 g/ha [4] [%] | pest or weed control at 125 g/ha [4] [%] | pest or weed control at 500 g/ha [5] [%] | pest or weed control at 125 g/ha [5] [%] | pest or weed control at 500 g/ha (Kochia (Kochia scoparia) [6]) [%] | pest or weed control at 125 g/ha (Kochia (Kochia scoparia) [6]) [%] | pest or weed control at 125 g/ha [7] [%] | pest or weed control at 500 g/ha [7] [%] | pest or weed control at 125 g/ha [8] [%] | pest or weed control at 500 g/ha [8] [%] | pest or weed control at 125 g/ha [9] [%] | pest or weed control at 500 g/ha [9] [%] | pest or weed control at 125 g/ha [10] [%] | pest or weed control at 500 g/ha [10] [%] | further results |
| --- | --- | --- | --- | --- | --- | --- | --- | --- | --- | --- | --- | --- | --- | --- | --- | --- | --- | --- | --- | --- | --- |
| CN1CC[C@H](c2cccc(C(F)(F)F)c2)[C@@H](C(=O)Nc2ccccc2F)C1=O [Compound 1331] | 0 | 0 | 90 | 90 | 80 | 20 | 0 | 0 | 100 | 90 | 0 | 0 | 20 | 50 | 0 | 0 | 90 | 90 | 0 | 0 | pest or weed control at 125 g/ha [11]: 0%; pest or weed control at 500 g/ha [11]: 0%; pest or weed control at 125 g/ha [12]: 0%; pest or weed control at 500 g/ha [12]: 0%; pest or weed control at 125 g/ha [13]: 90%; pest or weed control at 500 g/ha [13]: 90%; pest or weed control at 125 g/ha (Kochia (Kochia scoparia) [14]): 0%; pest or weed control at 500 g/ha (Kochia (Kochia scoparia) [14]): 0%; plant injury at 125 g/ha (corn (Zea mays)): 20%; Corn plant response rating (crop injury, 0 = no effect, 100 = complete kill) at 500 g/ha (corn (Zea mays)): 70% |
| CN1C[C@H](c2cc(C(F)(F)F)cs2)[C@@H](C(=O)Nc2cccc(F)c2F)C1=O [Compound 1377] | 40 | 20 | 100 | 80 | 50 | 20 | 30 | 0 | 100 | 100 | 80 | 70 | 20 | 60 | 20 | 40 | 90 | 90 | 40 | 60 | pest or weed control at 125 g/ha [11]: 30%; pest or weed control at 500 g/ha [11]: 60%; pest or weed control at 125 g/ha [12]: 20%; pest or weed control at 500 g/ha [12]: 60%; pest or weed control at 125 g/ha [13]: 80%; pest or weed control at 500 g/ha [13]: 80%; pest or weed control at 125 g/ha (Kochia (Kochia scoparia) [14]): 50%; pest or weed control at 500 g/ha (Kochia (Kochia scoparia) [14]): 70%; plant injury at 125 g/ha (corn (Zea mays)): 50%; Corn plant response rating (crop injury, 0 = no effect, 100 = complete kill) at 500 g/ha (corn (Zea mays)): 80% |
| CN1C[C@H](c2ccc(C(F)F)cc2)[C@@H](C(=O)Nc2cccc(F)c2F)C1=O [Compound 1383] | 80 | 80 | 100 | 100 | 70 | 70 | 80 | 80 | 100 | 100 | 90 | 90 | 40 | 50 | 40 | 70 | 100 | 100 | 60 | 60 | pest or weed control at 125 g/ha [11]: 40%; pest or weed control at 500 g/ha [11]: 50%; pest or weed control at 125 g/ha [12]: 50%; pest or weed control at 500 g/ha [12]: 60%; pest or weed control at 125 g/ha [13]: 90%; pest or weed control at 500 g/ha [13]: 90%; pest or weed control at 125 g/ha (Kochia (Kochia scoparia) [14]): 70%; pest or weed control at 500 g/ha (Kochia (Kochia scoparia) [14]): 70%; plant injury at 125 g/ha (corn (Zea mays)): 80%; Corn plant response rating (crop injury, 0 = no effect, 100 = complete kill) at 500 g/ha (corn (Zea mays)): 90% |
